Earlier results, collected in US20220378773A1, “METHODS FOR TREATING LEUKEMIA AND USE OF A LEUKEMIC STEM CELL SIGNATURE TO PREDICT CLINICAL SENSITIVITY TO THERAPIES” (CELGENE CORPORATION, priority 2019, published 2022).

Assays:
[1] = relative humidity increased from about 0% to about 90% RH; cited from earlier work
[2] = tested on: acute myeloid leukemia (AML) at relapse; conditions: administered alone; cited from earlier work

| Compound | water uptake [1] | response in treating AML at relapse [2] |
| --- | --- | --- |
| O=C1CCC(N2Cc3cc(CNC(=O)C(F)(F)c4ccc(Cl)cc4)ccc3C2=O)C(=O)N1 (stereo not shown) [Form A, 2-(4-chlorophenyl)-N-((2-(2,6-dioxopiperidin-3-yl)-1-oxoisoindolin-5-yl)methyl)-2,2-difluoroacetamide] | about 1.2 % w/w |  |
| O=C1CCC(N2Cc3cc(CNC(=O)C(F)(F)c4ccc(Cl)cc4)ccc3C2=O)C(=O)N1 (stereo not shown) [Form B, 2-(4-chlorophenyl)-N-((2-(2,6-dioxopiperidin-3-yl)-1-oxoisoindolin-5-yl)methyl)-2,2-difluoroacetamide] | about 1.4 % w/w |  |
| O=C1CCC(N2Cc3cc(CNC(=O)C(F)(F)c4ccc(Cl)cc4)ccc3C2=O)C(=O)N1 (stereo not shown) [Form C, 2-(4-chlorophenyl)-N-((2-(2,6-dioxopiperidin-3-yl)-1-oxoisoindolin-5-yl)methyl)-2,2-difluoroacetamide] | about 0.6 % w/w |  |
| CT-011: anti-PD-1 antibody, a humanized antibody |  | failed to show response |
